Reference: patent US20100285145A1, “GPR 119 MODULATORS” (PFIZER INC, priority 2009, published 2010)
Several values for one entry are separate records, joined by “and”; a condition that tells them apart may be missing. Identical values can stand only once.

How the values were obtained:
[1] = biological target: T1, human GPR119 (Homo sapiens, UniProt Q8TDV5); assay: cAMP HTRF functional assay (hGPR119 HEK-CRE beta-lactamase cells); format: cell-based; design: host or cells: HEK293-CRE beta-lactamase; details: for Emax: read-out: Intrinsic Activity (Human cAMP)
T1 sequence (Q8TDV5 1-335): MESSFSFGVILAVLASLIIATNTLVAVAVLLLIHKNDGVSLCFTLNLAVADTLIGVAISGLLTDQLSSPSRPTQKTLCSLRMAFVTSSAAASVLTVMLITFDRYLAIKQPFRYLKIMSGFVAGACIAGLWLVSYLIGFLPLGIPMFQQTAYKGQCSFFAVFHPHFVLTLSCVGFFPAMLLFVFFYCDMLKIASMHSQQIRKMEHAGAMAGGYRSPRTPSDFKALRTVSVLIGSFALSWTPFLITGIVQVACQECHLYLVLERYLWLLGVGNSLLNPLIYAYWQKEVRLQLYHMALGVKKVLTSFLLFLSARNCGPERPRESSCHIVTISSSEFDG
Description: GPR119 agonist activity was also determined with a cell-based assay utilizing an HTRF (Homogeneous Time-Resolved Fluorescence) cAMP detection kit (cAMP dynamic 2 Assay Kit; Cis Bio cat #62AM4PEC) that measures cAMP levels in the cell. The method is a competitive immunoassay between native cAMP produced by the cells and the cAMP labeled with the dye d2. The tracer binding is visualized by a Mab anti-cAMP labeled with Cryptate. The specific signal (i.e. energy transfer) is inversely proportional to the concentration of cAMP in either standard or sample.
Specifically, hGPR119 HEK-CRE beta-lactamase cells (Invitrogen 2.5×10^7/mL; the same cell line used in the beta-lactamase assay described above) are removed from cryopreservation and diluted in growth medium (Dulbecco's modified Eagle medium high glucose (DMEM; Gibco Cat # 11995-065), 1% charcoal dextran treated fetal bovine serum (CD serum; HyClone Cat # SH30068.03), 1×MEM Nonessential amino acids (Gibco Cat # 15630-080) and 25 mM HEPES pH 7.0 (Gibco Cat # 15630-080)). The cell concentration was adjusted to 1.5×10^5 cells/mL and 30 mLs of this suspension was added to a T-175 flask and incubated at 37 degrees Celsius in a humidified environment in 5% carbon dioxide. After 16 hours (overnight), the cells were removed from the T-175 flask (by rapping the side of the flask), centrifuged at 800×g and then re-suspended in assay medium (1×HBSS+CaCl2+MgCl2 (Gibco Cat # 14025-092) and 25 mM HEPES pH 7.0 (Gibco Cat # 15630-080)). The cell concentration was adjusted to 6.25×10^5 cells/mL with assay medium and 8 μl of this cell suspension (5000 cells) was added to each well of a white Greiner 384-well, low-volume assay plate (VWR cat #82051-458).
Varying concentrations of each compound to be tested were diluted in assay buffer containing 3-isobutyl-1-methylxanthin (IBMX; Sigma cat #15879) and added to the assay plate wells in a volume of 2 microL (final IBMX concentration was 400 microM and final DMSO concentration was 0.58%). Following 30 minutes incubation at room temperature, 5 microL of labeled d2 cAMP and 5 microL of anti-cAMP antibody (both diluted 1:20 in cell lysis buffer; as described in the manufacturers assay protocol) were added to each well of the assay plate. The plates were then incubated at room temperature and after 60 minutes, changes in the HTRF signal were read with an Envision 2104 multilabel plate reader using excitation of 330 nm and emissions of 615 and 665 nm. Raw data were converted to nM cAMP by interpolation from a cAMP standard curve (as described in the manufacturer's assay protocol) and EC50 determinations were made from an agonist-response curves analyzed with a curve fitting program using a 4-parameter logistic dose response equation.

[2] = biological target: T1, human GPR119; assay: β-Arrestin PathHunter assay (U2OS hGPR119 β-arrestin cells); format: cell-based; details: for EC50: read-out: Human B-arrestin Functional EC50; for Emax: U2OS, read-out: Intrinsic Activity (Human B-arrestin)
Description: GPR119 agonist activity was also determined with a cell-based assay utilizing DiscoverX PathHunter β-arrestin cell assay technology and their U2OS hGPR119 β-arrestin cell line (DiscoverX Cat # 93-0356C3). In this assay, agonist activation is determined by measuring agonist-induced interaction of β-arrestin with activated GPR119. A small, 42 amino acid enzyme fragment, called ProLink was appended to the C-terminus of GPR119. Arrestin was fused to the larger enzyme fragment, termed EA (Enzyme Acceptor). Activation of GPR119 stimulates binding of arrestin and forces the complementation of the two enzyme fragments, resulting in formation of a functional β-galactosidase enzyme capable of hydrolyzing substrate and generating a chemiluminescent signal.
Specifically, U2OS hGPR119 β-arrestin cells (DiscoverX 1×10^7/mL) are removed from cryopreservation and diluted in growth medium (Minimum essential medium (MEM; Gibco Cat # 11095-080), 10% heat inactivated fetal bovine serum (HIFBS; Sigma Cat # F4135-100), […] sodium pyruvate (Sigma Cat # S8636), 500 microg/mL G418 (Sigma Cat # G8168) and 250 microg/mL Hygromycin B (Invitrogen Cat # 10687-010). The cell concentration was adjusted to 1.66×10^5 cells/mL and 30 mLs of this suspension was added to a T-175 flask and incubated at 37 degrees Celsius in a humidified environment in 5% carbon dioxide. After 24 hours, the cells were removed from the T-175 flask with enzyme-free cell dissociation buffer (Gibco cat #13151-014), centrifuged at 800×g and then re-suspended in plating medium (Opti-MEM I (Invitrogen/BRL Cat # 31985-070) and 2% charcoal dextran treated fetal bovine serum (CD serum; HyClone Cat # SH30068.03).
The cell concentration was adjusted to 2.5×10^5 cells/mL with plating medium and 20 microliters of this cell suspension (5000 cells) was added to each well of a white Greiner 384-well low volume assay plate (VWR cat #82051-458) and the plates were incubated at 37 degrees Celsius in a humidified environment in 5% carbon dioxide.
After 16 hours (overnight) the assay plates were removed from the incubator and varying concentrations of each compound to be tested (diluted in assay buffer (1×HBSS+CaCl2+MgCl2 (Gibco Cat # 14025-092), 20 mM HEPES pH 7.0 (Gibco Cat # 15630-080) and 0.1% BSA (Sigma Cat # A9576)) were added to the assay plate wells in a volume of 5 microliters (final DMSO concentration was 0.5%). After a 90 minute incubation at 37 degrees Celsius in a humidified environment in 5% carbon dioxide, 12 microliters of Galacton Star β-galactosidase substrate (PathHunter Detection Kit (DiscoveRx Cat # 93-0001); prepared as described in the manufacturers assay protocol) was added to each well of the assay plate. The plates were incubated at room temperature and after 60 minutes, changes in the luminescence were read with an Envision 2104 multilabel plate reader at 0.1 seconds per well. EC50 determinations were made from an agonist-response curves analyzed with a curve fitting program using a 4-parameter logistic dose response equation.

[3] = HTRF cAMP, 30 min, 400 microM IBMX, each line a separate determination
[4] = percent of maximal activity relative to standard GPR119 agonist at 10 micromolar
[5] = U2OS hGPR119 β-arrestin cells, 90 min, each line a separate determination
[6] = marked **: curve was extrapolated to 100%
[7] = curve was extrapolated to 100% to calculate an EC50

EC50 [1, 3] | Intrinsic Activity (Human cAMP) [1, 4] | Emax [1, 4] [%] | EC50 [2, 5] | Emax [2, 4] [%] | Intrinsic Activity (Human B-arrestin) [2, 4] | Emax [2, 6] [%] | EC50 [2, 7] [µM] | EC50 [1, 7] | Intrinsic Activity (Human cAMP) [1, 6] | Emax [1, 6] [%] | SMILES
0.0138 µM and 0.0329 µM | 105% | 104 | – | – | – | – | – | – | – | – | CC(C)OC(=O)N1CCC(Oc2cc(N3CCc4cc(C#N)ccc43)ncn2)CC1 [Example 10, Isopropyl 4-{[6-(5-cyano-2,3-dihydro-1H-indol-1-yl)pyrimidin-4-yl]oxy}piperidine-1-carboxylate]
0.0241 µM and 0.0397 µM and 0.0763 µM and 0.0302 µM | 19.5% and 29.2% and 24.4% | 20.3 | 0.0894 µM | 29.1 | – | – | – | – | – | – | Cc1c(OC2CCN(C(=O)OC(C)C)CC2)ncnc1N1CCc2ncccc21 [Example 13, Isopropyl 4-{[6-(2,3-dihydro-1H-pyrrolo[3,2-b]pyridin-1-yl)-5-methylpyrimidin-4-yl]oxy}-piperidine-1-carboxylate]
0.0709 µM | – | 97.5 | – | – | – | – | – | – | – | – | CC(C)OC(=O)N1CCC(Oc2cc(N3CCc4cc(C(=O)N(C)C)ccc43)ncn2)CC1 [Example 9, 4-[6-(5-Dimethylcarbamoyl-2,3-dihydroindol-1-yl)-pyrimidin-4-yloxy]-piperidine-1-carboxylic acid isopropyl ester]
– | 27.9% and 29.5% and 16.7% | 26.3 | – | 51.6 | – | – | – | – | – | – | Cc1c(O[C@@H]2[C@@H]3COC[C@H]2CN(C(=O)OC(C)C)C3)ncnc1N1CCc2cc(S(C)(=O)=O)ccc21 [Example 23, Isopropyl (9-syn)-9-({5-methyl-6-[5-(methylsulfonyl)-2,3-dihydro-1H-indol-1-yl]pyrimidin-4-yl}oxy)-3-oxa-7-azabicyclo[3.3.1]nonane-7-carboxylate]
0.0288 µM and 0.126 µM and 0.225 µM and 0.199 µM and 0.0494 µM and 0.152 µM and 0.0637 µM and 0.202 µM and 0.201 µM and 0.104 µM | 107% | – | 0.0221 µM and 0.0149 µM and 0.0722 µM | – | 75.8% and 62.2% and 87.9% | – | – | – | – | – | CC(C)OC(=O)N1CCC(Oc2cc(N3CCc4cc(S(C)(=O)=O)ccc43)ncn2)CC1 [Example 3, Isopropyl 4-({6-[5-(methylsulfonyl)-2,3-dihydro-1H-indol-1-yl]pyrimidin-4-yl}oxy)piperidine-1-carboxylate]
0.784 µM and 1.14 µM and 1.18 µM and 0.331 µM and 0.792 µM | 56.5% (2×) and 53.6% and 44% | 56 | – | – | – | 100 | 2.57 | 8.15 µM and 9.62 µM and 8.35 µM and 9.48 µM | 100** % | 100 | CC(C)OC(=O)N1CCC(Oc2cc(N3CCc4ncccc43)ncn2)CC1 [Example 12, Isopropyl 4-{[6-(2,3-dihydro-1H-pyrrolo[3,2-b]pyridin-1-yl)pyrimidin-4-yl]oxy}piperidine-1-carboxylate]
0.0745 µM and 0.0689 µM and 0.0427 µM and 0.0698 µM | 43.5% and 30.6% and 28.4% | 39.1 | 0.00402 µM and 0.0229 µM and 0.00581 µM and 0.011 µM | 63.5 | 64.2% and 58.1% and 51.4% | – | – | – | – | – | Cc1c(O[C@H]2[C@@H]3COC[C@H]2CN(C(=O)OC2(C)CCC2)C3)ncnc1N1CCc2ncccc21 [Example 27, 1-Methylcyclobutyl (9-anti)-9-{[6-(2,3-dihydro-1H-pyrrolo[3,2-b]pyridin-1-yl)-5-methylpyrimidin-4-yl]oxy}-3-oxa-7-azabicyclo[3.3.1]nonane-7-carboxylate]
0.116 µM and 0.169 µM and 0.137 µM and 0.269 µM | 80.4% and 66.6% and 74.1% and 55.6% | – | 0.0402 µM and 0.0331 µM and 0.0746 µM and 0.0418 µM | 68.8 | 70.5% and 71.2% and 60.3% | – | – | – | – | – | Cc1c(O[C@H]2[C@@H]3COC[C@H]2CN(C(=O)OC(C)C)C3)ncnc1N1CCc2ncccc21 [Example 22, Isopropyl (9-anti)-9-{[6-(2,3-dihydro-1H-pyrrolo[3,2-b]pyridin-1-yl)-5-methylpyrimidin-4-yl]oxy}-3-oxa-7-azabicyclo[3.3.1]nonane-7-carboxylate]
0.0994 µM | – | 90.3 | – | – | – | – | – | – | – | – | CC(C)OC(=O)N1CCC(Oc2cc(N3CCc4cc(S(=O)(=O)CCO)ccc43)ncn2)CC1 [Example 11, Isopropyl 4-[(6-{5-[(2-hydroxyethyl)sulfonyl]-2,3-dihydro-1H-indol-1-yl}pyrimidin-4-yl)oxy]piperidine-1-carboxylate]
0.339 µM and 0.567 µM and 1.28 µM | 94% and 87.9% | 96.5 | – | – | – | – | – | – | – | – | CC(C)OC(=O)N1C[C@H]2COC[C@@H](C1)[C@H]2Oc1cc(N2CCc3cc(S(C)(=O)=O)ccc32)ncn1 [Example 1, Isopropyl 9-anti-({6-[5-(methylsulfonyl)-2,3-dihydro-1H-indol-1-yl]pyrimidin-4-yl}oxy)-3-oxa-7-azabicyclo[3.3.1]nonane-7-carboxylate]
0.0439 µM | – | 53 | – | – | – | – | – | – | – | – | Cc1c(OC2CCN(C(=O)OC(C)C)CC2)ncnc1N1CCc2cc(S(C)(=O)=O)ccc21 [Example 8, Isopropyl 4-({5-methyl-6-[5-(methylsulfonyl)-2,3-dihydro-1H-indol-1-yl]pyrimidin-4-yl}oxy)piperidine-1-carboxylate]
